The nature of data set [1]: Storage stability: concentration / degradation of compound of Formula I in composition. Format: physicochemical. The conditions noted are these: for 2W/54° C. analysis (% of 10° C.): non-aqueous composition, 2 weeks at 54° C. An excerpt: As used herein, the term “stable” when used in connection with chemical stability, e.g. chemically stable, means that the composition meets the chemical stability standards set forth by the Food and Agriculture Organization of the United Nations (FAO) in the Manual on Development and Use of FAO and WHO Specification for Pesticides (First Edition—Third Revision) (the “FAO/WHO Manual”) (available at http://www.fao.org/agriculture/crops/thematic-sitemap/theme/pests/jmps/manual/en/), the entire content of which is hereby incorporate by reference into the subject application. […] The amount of degradation permitted before the degradation is considered to be significant depends on the concentration of the active ingredients in the composition.
The physical and chemical stability of composition of Example 1 were tested under various conditions including CIPAC conditions.

Data set [2] has as its system Zymoseptoria tritici strain Mg Tri-R6. Briefly: Fungicidal efficacy on treated wheat leaves inoculated with Z. tritici (AUDPC, intensity of infection). Conditions: 21 dpi. Format: in vivo. As to the method: Wheat crop (Winter wheat plants cv. Alixan (Limagrain) at the BBCH 12 growth stage) was treated with compositions comprising the compound of Formula I and adjuvants in different concentrations as built-in composition and/or as tank mix application.
All the tested compositions and mixtures were prepared in a volume of water corresponding to 200 L/ha and used 3 hours after preparation.
The SC composition of Example 1 was mixed with Trycol® (0.2 or 0.4 L per hectare) or Silwet (0.01 L per hectare) which were added as tank mix in 200 L volume of water.
The compositions and mixtures were applied with a hand sprayer at operating pressure of 2 bars. Three replicates (pots) of 6 wheat plants each were used for each condition tested.
After treatment, wheat plants were left to dry at room temperature for 1 hour and then incubated in a climatic chamber: Temperature of 24° C. day/18° C. night—Photoperiod of 16 h light/8 h dark and a Relative Humidity of 65%.
Fragments of the first leaf are cut and transferred in Petri dish containing adapted water agar (6 leaf fragments per Petri dish). Fragments are inoculated with a calibrated pycnospores suspension of Z. tritici strain Mg Tri-R6. […]
After incubation time of 21 days, the intensity of the infection, which is the surface of colonized leaf by Z. tritici strain, is assessed (quantitative criteria). The fungicidal efficacy on each composition is then determined in percent of the untreated control. […]
Disease assessments were carried out 21 days post inoculation (dpi) by measuring the length of the necrosis of the leaf fragment. The intensity of infection was then determined in percent of the total length of the leaf fragment.
The efficacy was calculated based on the Area Under the Disease Progress Curve (AUDPC) which is a quantitative measure of disease intensity over time. […]
The fungicide efficacies were determined from the AUDPC values and expressed in percent of the untreated control.

Data set [3] is described as follows: Water content of composition. Format: physicochemical. Conditions: non-aqueous composition. An excerpt: As used herein, the term “water content” when used in connection with a composition, a mixture, or a component in the composition or mixture refers to the amount of free water in the composition, mixture or component of the composition or mixture and the water molecules chemically bound to another compound, such as water molecules in a hydrate.

The mark [4] stands for this setting: 20% Hydrate and 80% Form I Polymorph.
[5] abbreviates: 45% Hydrate, and 55% Form I Polymorph.

The results in this text go back to patent publication US20230292746A1, “MIXTURES AND COMPOSITIONS COMPRISING 5-FLUORO-4-IMINO-3- METHYL-1-TOSYL-3,4-DIHYDROPYRIMIDIN-2-ONE, AND METHODS OF USE THEREOF” (Adama Makhteshim Ltd., priority 2020, published 2023).

Where “and” joins values, the source holds several entries; their conditions need not be identical. Equal entries are not always repeated. Where only a bound is given, the exact number is not on record here.

For the compound `Cc1ccc(S(=O)(=O)n2cc(F)c(=N)n(C)c2=O)cc1` [compound of Formula I, 5-fluoro-4-imino-3-methyl-1-tosyl-3,4-dihydropyrimidin-2(1H)-one], the “degradation of the compound of Formula I” value in data set [1] (8 weeks of storage at 40° C., with Attagel 50 (0.5%) and Bentone SD-1 (0.5%)) was 4%; in data set [1] (8 weeks of storage at 40° C., without Attagel 50 and Bentone SD-1), 7-8%; in data set [1] (non-aqueous composition with water scavenger), ≤ 5%; in data set [1] (non-aqueous composition without water scavenger), 5-10%. The “fungicidal efficacy compared to application without adjuvant” value in data set [2] (SC composition tank mixed with Silwet® (0.01 L/ha), wheat cv. Alixan) is “increased the efficacy and the effective fungicidal activity”; in data set [2] (SC composition tank mixed with Trycol® (0.2 or 0.4 L/ha), wheat cv. Alixan), “increased the efficacy and the effective fungicidal activity”; in data set [2] (two adjuvants: Silwet® or Agnique® BP 420 with PVP or VP/VA, 10 g a.i./ha), “increased the efficacy and the effective fungicidal activity”.

As for `Cc1ccc(S(=O)(=O)n2cc(F)c(=N)n(C)c2=O)cc1` [Hydrate I, 5-fluoro-4-imino-3-methyl-1-tosyl-3,4-dihydropyrimidin-2(1H)-one], the “2W/54° C. analysis (% of 10° C.)” value in data set [1] (setting [4]) was 88.5 % of 10 °C and 88.7 % of 10 °C; in data set [1] (setting [5]), 89.3 % of 10 °C and 88.6 % of 10 °C. Moreover, the “% Water Content” value in data set [3] (setting [4]) was 0.24% and 0.22%; in data set [3] (setting [5]), 0.35%.
